Assay results published in patent publication US20250154212A1, “METHOD OF DISRUPTING MEMORY AND LIPOPEPTIDE FOR USE IN SUCH METHOD” (The Research Foundation for The State University of New York, priority 2023, published 2025).

Key:
[1] = system: auditory-cued fear/threat memory; assay: Auditory-cued fear/threat conditioning, infusion into basolateral amygdala, wild-type mice; format: in vivo, mouse; details: 6 nmol in 0.3 μL into each BLA, tested 1 day post-injection
Experimental: Mice were 8-10 weeks old at the time of cannulation and 9-11 weeks old at the beginning of behavioral experiments. Mice were housed with cage-mates in plastic cages and provided with food and water ad libitum. Mice were maintained on a 12 h light/dark cycle (lights on at 7:00 am) and behavioral experiments began at 9:00 am.
Mice were injected intraperitoneally (1 ml/100 g body weight) with an anesthetic cocktail containing ketamine (10 mg/ml) and xylazine (2 mg/ml). Mice were provided with analgesic treatment prior to surgery (carprofen; 5 mg/ml). Guide cannulae (Plastics One, Roanoke, VA) were implanted bilaterally in the basolateral amygdala (from bregma: AP-1.7 mm; L+/−3.0 mm; DV-4.4 mm) and secured to the skull with three jeweler's screws and dental cement. Antisedan (0.66 ml/100 g body weight of 0.5 mg drug/ml solution) was given via i.p. injection after surgery to reverse the anesthesia.
For 7 days following surgery, mice were handled by freely exploring the experimenter's palm for 2-5 min. Mice were habituated, trained, and tested in the same conditioning box (Coulbourn Habitest, Coulboum Instruments) with differing floors and walls to produce two different contexts (Context A and Context B). […] Freezing behavior (cessation of all movement except breathing) during the tone on Test 1 and Test 2 was scored by an experimenter blind to the conditions. […]

[2] = system: KIBRA with novel PKCs (PKCδ, PKCε, PKCη, PKCθ); assay: BiFC assay of KIBRA with novel PKCs in HEK293T cells; format: cell-based, human
Experimental: KIBRA-PKMζ BiFC was performed as previously described (28), using pVen1-FLAG-KIBRA and pVen2-HA-PKMζ, in which PKMζ was cloned between EcoR1 and BamH1 sites. The constructs pVen1 and pVen2 encode the N-terminus (amino acids 1-154) and C-terminus (amino acids 155-238) of the Venus protein, respectively, and the Venus fragments were on the N-terminal of the fusion proteins. pVen2-HA-PKMζ[PKCι/λ-P291Q;F297S] was generated by site-directed mutagenesis using forward-cctggagAagcAAatceggatcccccggtCcctgtccgte and reverse-gacggacaggGaccgggggatccggatTTgctTctccagg primers and the QuickChange II XL Site-Directed Mutagenesis Kit (Agilent Technologies), following manufacturer's instructions. Additional pVen2-HA-PKC isoforms and pVen2-HA-CaMKIIα in the pVen2-HA vector were generated by cloning the N-terminus of the coding sequence of each kinase (table S1) to obtain an in-frame fusion at the C-terminus of the pVen2-HA. Human versions of KIBRA and kinases were used, and all PCR amplified sequences and constructs were verified by DNA sequencing.
HEK293T cells were cultured in Dulbecco's Modified Eagle's Medium supplemented with 10% heat-inactivated fetal bovine serum, 100 U/ml penicillin, […] streptomycin, 2 mM glutamine, and 10 mM HEPES in a T75 tissue culture flask with canted neck and ventilated cap. […]

SMILES: O=S(=O)(O)c1cc(O)c2c(S(=O)(=O)O)cc(S(=O)(=O)O)cc2c1 [ζ-stat, 1-naphthol-3,6,8-trisulphonic acid]
- auditory-cued fear/threat memory retention (% time freezing to tone) [1]: impairs memory retention
- auditory-cued fear/threat memory retention (% time freezing to tone) ([1]; listed as z-stat): disrupts fear/threat memory retention
- effect on BiFC of KIBRA with novel PKCs [2]: has no effect
